What was measured:
[1] = tested on: primary mouse hepatocytes; assay: Gene expression (Affymetrix Mouse Genome 430 2.0) in primary mouse hepatocytes, true vs false GTX, 24 h and 48 h
[2] = tested on: primary mouse hepatocytes
[3] = in vivo; cited from earlier work

Cl.ClCc1ccccn1 [2-CP, 2-(Chloromethyl)pyridine.HCl]
Gene expression AA561726 average [1]: −0.4297 | Gene expression AF000969 average [1]: 0.2944 | Gene expression AF022072 average [1]: 0.04067 | Gene expression AF033112 average [1]: −0.6651 | Gene expression AF055573 average [1]: 0.3686 | Gene expression AF069954 average [1]: 0.199 | Gene expression AF297615 average [1]: −0.5906 | Gene expression AF335325 average [1]: −0.05667 | Gene expression AI594683 average [1]: −0.2197 | Gene expression AI747296 average [1]: −0.2637 | Gene expression AK005731 average [1]: −0.6019 | Gene expression AK007854 average [1]: 0.5513 | Gene expression AK010447 average [1]: −0.05023 | Gene expression AK010738 average [1]: 0.0059 | Gene expression AK014608 average [1]: −0.01263 | Gene expression AK017734 average [1]: 0.1489 | Gene expression AK018383 average [1]: −0.2158 | Gene expression AK019979 average [1]: −0.4249 | Gene expression AV095209 average [1]: −0.03467 | Gene expression AV141095 average [1]: −0.4102 | Gene expression AV173869 average [1]: 0.3109 | Gene expression AV216768 average [1]: −0.4179 | Gene expression AV219418 average [1]: 0.8281 | Gene expression AV221299 average [1]: 0.4545 | Gene expression AV246296 average [1]: −0.3558 | Gene expression AV251625 average [1]: 0.06723 | Gene expression AV254764 average [1]: 0.396 | Gene expression AV327248 average [1]: −0.2215 | Gene expression BB009155 average [1]: −0.348 | Gene expression BB027848 average [1]: 0.2054 | Gene expression BB043558 average [1]: −0.2293 | Gene expression BB046347 average [1]: 0.187 | Gene expression BB140436 average [1]: 0.2823 | Gene expression BB204486 average [1]: −0.3875 | Gene expression BB223872 average [1]: 0.1743 | Gene expression BB246912 average [1]: 0.5739 | Gene expression BB275142 average [1]: 0.091 | Gene expression BB458460 average [1]: −0.1792 | Gene expression BB463610 average [1]: 0.0113 | Gene expression BB730977 average [1]: −0.7313 | Gene expression BB743970 average [1]: −0.1686 | Gene expression BB770528 average [1]: −0.4836 | Gene expression BB781615 average [1]: 0.007033 | Gene expression BC003284 average [1]: −0.2395 | Gene expression BC004827 average [1]: −0.2477 | Gene expression BC005552 average [1]: 0.1255 | Gene expression BC006713 average [1]: 0.2405 | Gene expression BC010318 average [1]: 0.1986 | Gene expression BC012247 average [1]: 0.5221 | Gene expression BC012955 average [1]: 0.2863 | Gene expression BC013893 average [1]: 0.4871 | Gene expression BC017615 average [1]: −0.3193 | Gene expression BC019379 average [1]: −0.1926 | Gene expression BC019882 average [1]: 0.8148 | Gene expression BC021352 average [1]: −0.7192 | Gene expression BC022148 average [1]: 0.1919 | Gene expression BC025169 average [1]: 0.9283 | Gene expression BC026131 average [1]: 0.4079 | Gene expression BC027026 average [1]: −0.2177 | Gene expression BC027121 average [1]: −0.6553 | Gene expression BC027185 average [1]: 0.06273 | Gene expression BE956581 average [1]: 0.0444 | Gene expression BF719766 average [1]: −0.1259 | Gene expression BG065754 average [1]: −0.2817 | Gene expression BG066491 average [1]: −0.3489 | Gene expression BG076151 average [1]: −0.0769 | Gene expression BG076333 average [1]: 0.4759 | Gene expression BG797099 average [1]: 0.004233 | Gene expression BG967046 average [1]: −0.1557 | Gene expression BI651416 average [1]: −0.08753 | Gene expression BI966443 average [1]: −0.01713 | Gene expression BM198879 average [1]: −0.1026 | Gene expression BM200015 average [1]: −0.3607 | Gene expression BM230508 average [1]: −0.2554 | Gene expression BM936480 average [1]: −0.07417 | Gene expression BQ174991 average [1]: 0.1864 | Gene expression L21027 average [1]: −0.5404 | Gene expression NM_007556 average [1]: 0.1685 | Gene expression NM_007980 average [1]: −0.2848 | Gene expression NM_007987 average [1]: −0.3447 | Gene expression NM_008522 average [1]: 0.0213 | Gene expression NM_008935 average [1]: −0.2124 | Gene expression NM_009897 average [1]: −0.06103 | Gene expression NM_011075 average [1]: −0.5782 | Gene expression NM_011176 average [1]: −0.0046 | Gene expression NM_011316 average [1]: 0.5829 | Gene expression NM_012006 average [1]: −0.1277 | Gene expression NM_013642 average [1]: 0.3967 | Gene expression NM_013738 average [1]: −0.373 | Gene expression NM_013929 average [1]: −0.5291 | Gene expression NM_018881 average [1]: −0.0599 | Gene expression NM_019738 average [1]: −0.5143 | Gene expression NM_030697 average [1]: −0.0882 | Gene expression NM_053122 average [1]: 0.1396 | Gene expression NM_134147 average [1]: 0.6449 | Gene expression NM_134188 average [1]: −0.1373 | Gene expression X62701 average [1]: −0.146 | Gene expression data AF000969 (Cadps2) [1]: −0.1003 | Gene expression data AF022072 (Grb10) [1]: 0.621 | Gene expression data AF065917 (Lif) [1]: 0.01213 | Gene expression data AF297615 (Ggta1) [1]: 0.06963 | Gene expression data AI594683 (Dmn) [1]: −0.3157 | Gene expression data AI596632 (Ptprg /// LOC632664) [1]: 0.2251 | Gene expression data AI987929 (Ndrg1) [1]: −0.1004 | Gene expression data AK004419 (Fbxl17) [1]: −0.1203 | Gene expression data AK005731 (1700007K13Rik) [1]: 0.1965 | Gene expression data AK007766 (1810044A24Rik) [1]: −0.1235 | Gene expression data AK007854 (1810053B23Rik) [1]: −0.4492 | Gene expression data AK009736 (Gpr137b /// LOC664862 /// LOC673335) [1]: 0.9644 | Gene expression data AK010447 (Smyd3) [1]: 0.06097 | Gene expression data AK014608 (4632434l11Rik) [1]: 0.5726 | Gene expression data AK019979 (2610528E23Rik) [1]: 0.3731 | Gene expression data AV095209 (Mthfd1l) [1]: 0.5754 | Gene expression data AV141095 (1110033M05Rik) [1]: 0.1817 | Gene expression data AV173571 (1700106N22Rik) [1]: −0.01367 | Gene expression data AV219418 (Ldhb) [1]: −0.7968 | Gene expression data AV223474 (Zdhhc14) [1]: −0.4094 | Gene expression data AV298304 (Homez) [1]: 0.1881 | Gene expression data AV327248 (Zfp365 /// LOC674611) [1]: 0.1477 | Gene expression data AV377066 (9130221J18Rik) [1]: −0.6354 | Gene expression data AW240761 (Tbc1d5) [1]: 0.02803 | Gene expression data AW543460 (Pard3) [1]: 0.2263 | Gene expression data AW543723 [1]: 0.1487 | Gene expression data AW986246 (Maoa) [1]: 1.21 | Gene expression data BB027848 (4732466D17Rik) [1]: −0.5716 | Gene expression data BB043558 (9230114K14Rik) [1]: 0.4946 | Gene expression data BB275142 (AW456874) [1]: −0.1954 | Gene expression data BB308836 (Ppm1l) [1]: −0.3692 | Gene expression data BB318221 (Zdhhc14) [1]: −0.2464 | Gene expression data BB463610 (4632434l11Rik) [1]: 0.3848 | Gene expression data BB526605 (Mipol1) [1]: −0.2134 | Gene expression data BB770528 (Rai2) [1]: −0.3271 | Gene expression data BB821363 (Scfd2) [1]: −0.1883 | Gene expression data BC004827 (Psat1) [1]: 0.3654 | Gene expression data BC008626 (Icam1) [1]: −0.242 | Gene expression data BC010462 (BC010462) [1]: −0.5895 | Gene expression data BC012247 (Dcxr) [1]: −0.3261 | Gene expression data BC012260 (Psmf1) [1]: −0.824 | Gene expression data BC015270 (Hist2h3c2) [1]: −0.231 | Gene expression data BC016073 (Cdkal1) [1]: 0.03017 | Gene expression data BC016265 (Ube2e2) [1]: 0.0177 | Gene expression data BC019882 (Acaa1b) [1]: −0.0399 | Gene expression data BC025501 (Aaas) [1]: 0.0663 | Gene expression data BC025837 (Sbk1) [1]: −0.5042 | Gene expression data BC025915 (Cova1) [1]: 0.05827 | Gene expression data BC026422 (Tgm1) [1]: −0.3825 | Gene expression data BF719766 (Thyn1) [1]: 0.0395 | Gene expression data BG065754 (Ccng1) [1]: 0.3287 | Gene expression data BG066903 (Kif16b) [1]: 0.3368 | Gene expression data BG069873 (Gnb1l) [1]: −0.1027 | Gene expression data BG070887 (Gtdc1) [1]: −0.06773 | Gene expression data BG076151 (Ppm1d) [1]: 0.1213 | Gene expression data BG261907 (Large) [1]: −0.1177 | Gene expression data BI651416 (Cdc42bpg) [1]: 0.05237 | Gene expression data BI660702 (Ell3) [1]: 0.08167 | Gene expression data BM198879 (Ercc5) [1]: 0.2935 | Gene expression data BM230508 (A030007D23Rik) [1]: 0.3615 | Gene expression data NM_007987 (Fas) [1]: 0.2313 | Gene expression data NM_008522 (Ltf) [1]: −0.3581 | Gene expression data NM_008576 (Abcc1) [1]: 1.199 | Gene expression data NM_011176 (St14) [1]: −0.05393 | Gene expression data NM_011316 (Saa4) [1]: −0.04463 | Gene expression data NM_012006 (Acot1) [1]: 0.6012 | Gene expression data NM_013866 (Zfp385) [1]: −0.1346 | Gene expression data NM_018770 (Igsf4a) [1]: 0.14 | Gene expression data NM_021451 (Pmaip1) [1]: 0.02357 | Gene expression data NM_025770 (Atg10) [1]: 0.3445 | Gene expression data NM_028803 (Gbe1) [1]: 0.5242 | Gene expression data NM_030697 (Ankrd47) [1]: −0.5785 | Gene expression data NM_053168 (Trim11) [1]: −0.06783 | Gene expression data NM_134188 (Acot2) [1]: 0.501 | Gene expression data Y15910 (Diap2) [1]: 0.06693 | Gene expression data AF204959 (Cyp3a25 /// LOC622249) [2]: −0.5019 | GTX in vivo [3]: −
